Non-standard residues stand in square brackets, D forms with d. Residues, ends and D or L forms follow the SMILES beside them. No end group written: not given here. pGlu = O=C1CC[C@@H](C(=O)O)N1

The nature of data set [1]: Storage stability in aqueous solution (HPLC chromatogram, FIG. 1). The format is physicochemical. The settings on record: storage at 4° C. for 13 days. How it is done:
In the left column of FIG. 1 (HPLC chromatogram), results for protransduzin A upon storage for 0-13 days at −20° C. and at 4° C. (13 days) are compared with the results for protransduzin B under the same conditions.

A further data set relates to cells. The data set is described as follows: Transduction of cells with protransduzin B. The format is cell-based. To be noted: 25 μg/ml protransduzin B, cells incubated 2 days. As for the experimental part:
Dissolve 0.5 mg of protransduzin B in 50 μl of DMSO. Then add 450 μl of PBS to the solution, fibrils forming within 3 min. Add this stock solution (1 mg/ml) to the vectors to obtain a concentration of protransduzin B of 25 μg/ml. Vortex the solution for 1 min, then centrifuge with 5000 g for 5 min. The supernatant is discarded, and the pellet is suspended in a little PBS and added to the cells. The cells are incubated in an incubator for 2 days.

With `CC[C@H](C)[C@H](NC(=O)[C@H](CCCCN)NC(=O)[C@H](CS)NC(=O)[C@@H]1CCC(=O)N1)C(=O)N[C@@H](CCCCN)C(=O)N[C@@H](CCC(N)=O)C(=O)N[C@H](C(=O)N[C@H](C(=O)N[C@@H](CC(N)=O)C(=O)N[C@@H](CCSC)C(=O)N[C@@H](Cc1c[nH]c2ccccc12)C(=O)N[C@@H](CCC(N)=O)C(=O)O)[C@@H](C)CC)[C@@H](C)CC` [protransduzin B] ([pGlu]CKIKQIINMWQ-OH), the “degradation upon storage (HPLC peak height)” value in data set [1] is on record as “hardly degraded at all”. For the same compound, in the data set on cells, the cells transduced entry is listed as “Up to 96%” and the transduction rate result is recorded as “significantly enhanced”.
Take “QCKIKQIINMWQ [protransduzin A, reference compound]”: the “degradation upon storage (HPLC peak height)” value in data set [1] is on record as “degraded almost to one half”.

The record behind these values is patent publication US20160185820A1, “PRO[…], A GENE TRANSFER ENHANCER” (PHARIS BIOTEC GMBH, priority 2013, published 2016).
